Measured values taken from the NIST ThermoML archive (doi:10.1021/je500594z).

Assay: xn = mol fraction of the nth substance listed
Settings: 101 kPa, Liquid; for viscosity: Falling or rolling sphere viscometry; for speed of sound: Sing-around technique in a fixed-path interferometer; for mass density: Vibrating tube method

CCCCCC[n+]1ccn(C)c1.O=S(=O)([N-]S(=O)(=O)C(F)(F)F)C(F)(F)F + CCO
Settings	mass density [kg/m3]	speed of sound [m/s]	viscosity [mPa·s]
278.15 K, x1 = 0.047	933.23	1208.7	2.69
278.15 K, x1 = 0.097	1026.67	1211.4	4.32
278.15 K, x1 = 0.198	1146.24	1222.7	9.53
278.15 K, x1 = 0.292	1215.04	1233.9	16.27
278.15 K, x1 = 0.39	1263.14	1242.8	25.73
278.15 K, x1 = 0.47	1292.55	1250.3	35.73
278.15 K, x1 = 0.596	1327.21	1258.1	56.91
278.15 K, x1 = 0.694	1347.34	1262.6	79.17
278.15 K, x1 = 0.799	1364.86	1267.2	112.54
278.15 K, x1 = 0.903	1379.2	1271.2	154.54
278.15 K, x1 = 1	1390.3	1274.6	211.31
298.15 K, x1 = 0.047	915.22	1145.7	1.73
298.15 K, x1 = 0.097	1008.17	1152.5	2.61
298.15 K, x1 = 0.198	1127.27	1168.4	4.98
298.15 K, x1 = 0.292	1195.96	1181.9	7.97
298.15 K, x1 = 0.39	1244.05	1192.3	12.1
298.15 K, x1 = 0.47	1273.5	1200.6	15.94
298.15 K, x1 = 0.596	1308.27	1209.2	23.72
298.15 K, x1 = 0.694	1328.48	1214.1	31.3
298.15 K, x1 = 0.799	1346.07	1218.9	41.44
298.15 K, x1 = 0.903	1360.48	1223.1	53.7
298.15 K, x1 = 1	1371.64	1226.8	70.46
318.15 K, x1 = 0.047	896.92	1085	1.18
318.15 K, x1 = 0.097	989.44	1095.9	1.71
318.15 K, x1 = 0.198	1108.22	1116.3	3.05
318.15 K, x1 = 0.292	1176.89	1131.9	4.64
318.15 K, x1 = 0.39	1225.05	1143.8	6.7
318.15 K, x1 = 0.47	1254.61	1153	8.61
318.15 K, x1 = 0.596	1289.55	1162.6	12.33
318.15 K, x1 = 0.694	1309.88	1168	15.72
318.15 K, x1 = 0.799	1327.59	1173.4	20.13
318.15 K, x1 = 0.903	1342.08	1178	24.94
318.15 K, x1 = 1	1353.31	1182	30.22
338.15 K, x1 = 0.047	878.04	1025.6	–
338.15 K, x1 = 0.097	970.28	1040.6	–
338.15 K, x1 = 0.198	1088.96	1065.5	–
338.15 K, x1 = 0.292	1157.75	1083.5	–
338.15 K, x1 = 0.39	1206.1	1097	–
338.15 K, x1 = 0.47	1235.83	1107.2	–
338.15 K, x1 = 0.596	1271.01	1118	–
338.15 K, x1 = 0.694	1291.5	1124	–
338.15 K, x1 = 0.799	1309.35	1130	–
338.15 K, x1 = 0.903	1323.94	1135.2	–
338.15 K, x1 = 1	1335.25	1139.3	–

CCn1cc[n+](C)c1.O=S(=O)([N-]S(=O)(=O)C(F)(F)F)C(F)(F)F + CCO
Settings	mass density [kg/m3]	speed of sound [m/s]	viscosity [mPa·s]
278.15 K, x1 = 0.051	946.21	1201.4	2.42
278.15 K, x1 = 0.102	1052.67	1199.9	3.44
278.15 K, x1 = 0.198	1191.39	1210.6	5.9
278.15 K, x1 = 0.292	1281.48	1224.4	8.91
278.15 K, x1 = 0.402	1356.04	1239.1	13.41
278.15 K, x1 = 0.501	1405.04	1250.3	18.24
278.15 K, x1 = 0.619	1449.8	1261.2	25.83
278.15 K, x1 = 0.71	1476.96	1268.1	33.19
278.15 K, x1 = 0.811	1502.1	1274.8	43.83
278.15 K, x1 = 0.907	1521.68	1280	56.33
278.15 K, x1 = 1	1538.23	1284.9	75.08
298.15 K, x1 = 0.051	927.85	1139.3	1.57
298.15 K, x1 = 0.102	1033.54	1142.6	2.16
298.15 K, x1 = 0.198	1171.44	1158.2	3.47
298.15 K, x1 = 0.292	1261.14	1174.5	5.02
298.15 K, x1 = 0.402	1335.52	1190.9	7.16
298.15 K, x1 = 0.501	1384.32	1203	9.66
298.15 K, x1 = 0.619	1429.22	1214.6	13.22
298.15 K, x1 = 0.71	1456.41	1222	16.41
298.15 K, x1 = 0.811	1481.59	1229	20.91
298.15 K, x1 = 0.907	1501.19	1234.4	25.67
298.15 K, x1 = 1	1517.76	1240.1	32.02
318.15 K, x1 = 0.051	909.21	1079.4	1.09
318.15 K, x1 = 0.102	1014.18	1087.3	1.46
318.15 K, x1 = 0.198	1151.39	1107.7	2.27
318.15 K, x1 = 0.292	1240.83	1126.5	3.21
318.15 K, x1 = 0.402	1315.11	1144.5	4.59
318.15 K, x1 = 0.501	1363.99	1157.6	5.85
318.15 K, x1 = 0.619	1408.9	1170	7.84
318.15 K, x1 = 0.71	1436.15	1177.9	9.67
318.15 K, x1 = 0.811	1461.4	1185.3	11.96
318.15 K, x1 = 0.907	1481.05	1191.2	14.35
318.15 K, x1 = 1	1497.65	1196.6	17.32
338.15 K, x1 = 0.051	889.98	1020.7	0.79
338.15 K, x1 = 0.102	994.4	1033.2	1.05
338.15 K, x1 = 0.198	1131.14	1058.3	1.6
338.15 K, x1 = 0.292	1220.47	1079.7	2.23
338.15 K, x1 = 0.402	1294.8	1099.7	3.16
338.15 K, x1 = 0.501	1343.74	1113.9	3.99
338.15 K, x1 = 0.619	1388.81	1127.3	5.23
338.15 K, x1 = 0.71	1416.16	1135.6	6.35
338.15 K, x1 = 0.811	1441.5	1143.7	7.7
338.15 K, x1 = 0.907	1461.23	1150	9.11
338.15 K, x1 = 1	1477.86	1155.8	10.82
